Patent publication US20100056623A1, “FUMAGILLOL DERIVATIVES OR METHOD FOR PREPARATION OF FUMAGILLOL DERIVATIVES, AND PHARMACEUTICAL COMPOSITIONS COMPRISING THE SAME” (CHONG KUN DANG PHARMACEUTICAL CORP., priority 2005, published 2010)
Like-named read-outs stand apart in the source and are kept apart here.

Legend:
[1] = Chemical stability test (HPLC purity); settings: for 1 month Other peaks (%) / 1 month Parent peak (%) / Initial Other peaks (%) / Initial Parent peak (%): HPLC; for 1 month Other peaks (%) / 1 month Parent peak (%) / change of purity (in words) / chemical stability compared to known compounds: 1 month at 40±2° C.; for 1 month Other peaks (%) / 1 month Parent peak (%) / change of purity (%) / change of purity (in words) / chemical stability compared to known compounds: 75±5% relative humidity; for 1 month Other peaks (%) / 1 month Parent peak (%): air-tight vessel; for change of purity (%): initial vs 1 month at 40±2° C.
Procedure: Each compound of the present invention was kept in an air-tight vessel for 1 month at 40±2° C. and 75±5% of relative humidity. Thereafter the HPLC purity test was executed.
25 mL of the solution was precisely taken, and poured into 100 mL volumetric flask. Acetonitrile/20 mM ammonium acetate aqueous solution (50:50) was added thereto to be the total volume of 100 ml. The solution was filtrated, and the filtrate was used as a test liquid.
(2) Operational Condition of Instrument. • Column: Kromasil®C18 (UG 100 Å, 5 μm, 4.6 mm Φ×250 mm) • Column temperature: 30° C. • Mobil phase: 20 mM ammonium acetate (pH 4.2) buffer:acetonitrile (55:45) • Injection volume: 20 μL • Flow rate: 1.2 mL/min • Detector: UV light-absorption Spectrophotometer (detection wavelength: 306 nm)

[2] = Solubility test; assay type: physicochemical; settings: ordinary temperature
Procedure: To a constant amount (400 mg) of each compounds of present invention, a constant amount of demineralized water, methanol and ethanol were added separately, and the solution was stirred at ordinary temperature.

[3] = tested on: CPAE (calf pulmonary artery endothelial cell); assay: Inhibiting activity on cell proliferation, SRB analysis (CPAE); assay type: cell-based; settings: for IC50: CPAE cells, 3 days with drug, SRB, read-out: IC50 (nM) CAPE; for Selectivity Index (L5178Y/CAPE): IC50 L5178Y / IC50 CPAE
Procedure: (§1) In order to compare the safety index (SI) of CPAE (calf pulmonary artery endothelial cell) with that of HUVEC (human umbilical vein endothelial cell), L5178Y lymphoma that was isolated from murine thymus was used. The safety index was defined as IC50 ratio of L5178Y against CPAE (IC50L5178Y/IC50CPAE). All cell lines, which had been kept in liquid nitrogen tank, were used after being thawed and subcultured 2˜3 times in T-flask. CPAE, HUVEC and L5178Y were cultured in MEM culture medium (20% FBS, 50˜100 μg/ml ECGS, 0.15% baking soda, 0.05 mg/ml gentamicin), M199 culture medium (20% FBS, 0.22% baking soda, 100 μg/ml heparin, 3 ng/ml bFGF, 0.05 mg/ml gentamicin) and RPMI 1640 culture medium (10% FBS, 0.2% baking soda, 0.05 mg/ml gentamicin), respectively, under the condition of 37° C. and 5% CO2.
(§2) The drug was prepared by being gradationally diluted to two or ten times by using PBS, 20 μl of the solution was added to each well of 96 well plate in triplicate. The cell, which is being incubated, was treated with trypsin to give cell suspension. The number of cell thereafter was counted. And 180 μl of the solution was inoculated to each well and cultured.
(§3) The cell was cultured with drugs for 3 days and then 50 μl of 50% TCA was added thereto (final concentration 10%). Subsequently the cell was fixed by being left alone at 4° C. for 1 hour. The well was washed 4 times by distilled water and then dried. After that 100 μl of SRB (Sulforhodamine B, Sigma Chemical Co.) solution (0.4% w/v in 1% acetic acid) was added thereto and then it was left alone at ordinary temperature for 30 minutes. Thereafter the well was washed 4 times by 1% acetic acid and dried. And then after adding 200 μl of 10 mM tris buffer, the absorbance at 570 nm was measured by automatic microplate reader (Model: Elx 808, Bio-Tek Instrument, INC). The viability was calculated from the ratio of the absorbance of the control to which drugs were not added and the well to which drugs were added.

[4] = tested on: L5178Y lymphoma; assay: Inhibiting activity on cell proliferation, MTT analysis (L5178Y); assay type: cell-based, murine; settings: L5178Y lymphoma cells, 3 days with drug
Procedure: as §1, §2
The tumor cell was cultured with drugs for 3 days and then 50 μl of MTT (3-(4,5-dimethylthiazole-2-yl)-2,5-diphenyl tetrazolium bromide, Sigma Chemical Co.) solution (2.5 mg/ml in PBS) was added thereto. And it was further cultured for 4 hours at 37° C. Culture medium was removed carefully. And after dissolving formazan crystal by adding 150 μl of DMSO, the absorbance at 570 nm was determined.

[5] = tested on: HUVEC (human umbilical vein endothelial cell); assay: Inhibiting activity on cell proliferation, SRB analysis (HUVEC); assay type: cell-based; settings: Homo sapiens, 72 h, HUVEC cells, 3 days with drug
Procedure: as §1, §2, §3

[6] = Bos taurus, Endothelial cell, 72 h

SMILES	IC50 ([4]; Mus musculus, 72 h) [nM]	1 month Other peaks (%) [1] [%]	1 month Parent peak (%) [1] [%]	Initial Other peaks (%) [1] [%]	Initial Parent peak (%) [1] [%]	change of purity (%) [1] [%]	The amount of solvent to dissolve 1 g of the compounds (ml), demineralized water [2] [mL]	The amount of solvent to dissolve 1 g of the compounds (ml), ethanol [2] [mL]	The amount of solvent to dissolve 1 g of the compounds (ml), methanol [2] [mL]	IC50 [3] [nM]	IC50 [4] [nM]	change of purity (in words) [1]	chemical stability compared to known compounds [1]	IC50 [3, 6] [nM]	Selectivity Index (L5178Y/CAPE) [3]	effect compared to CKD-731 against CPAE ([3]; relative to CKD-731)	IC50 [5] [nM]
COc1cc(C=CC(=O)OC2CCC3(CO3)C(C3(C)OC3CC=C(C)C)C2OC)cc(OC)c1OC (stereo not drawn) [CKD-731, O-(3,4,5-trimethoxycinnamoyl)fumagillol, reference compound]	–	2.9	97.1	1.1	98.9	1.8	1567	372	350	0.0044	58200	–	–	–	–	–	–
CO[C@@H]1[C@H](OC(=O)/C=C/c2ccc(OCCO)cc2)CC[C@]2(CO2)[C@H]1[C@@]1(C)O[C@@H]1CC=C(C)C [Example 1, O-(4-(2-hydroxyethoxy)cinnamoyl)fumagillol]	15500	0.6	99.4	0.6	99.4	0	135	55	34	–	–	hardly showed a change of purity	more excellent chemical stability than TNP-470, CKD-732 and CKD-731	0.0025	6.22 × 10^6	equivalent or not smaller than twice effect of CKD-731	–
CO[C@@H]1[C@H](OC(=O)/C=C/c2ccc(Oc3ccc(CO)cc3)cc2)CC[C@]2(CO2)[C@H]1[C@@]1(C)O[C@@H]1CC=C(C)C [Example 8, O-(4-(4-hydroxymethylphenoxy)cinnamoyl)fumagillol]	60200	–	–	–	–	–	–	–	–	–	–	–	–	0.857	7.03 × 10^4	–	0.00456
COc1cc(/C=C/C(=O)O[C@@H]2CC[C@]3(CO3)[C@@H]([C@@]3(C)O[C@@H]3CC=C(C)C)[C@@H]2OC)cc(OC)c1Oc1ccc(CO)cc1 [Example 9, O-(3,5-dimethoxy-4-(4-hydroxymethylphenoxy)cinnamoyl)fumagillol]	61200	–	–	–	–	–	–	–	–	–	–	–	–	0.811	7.54 × 10^4	–	0.00361
COc1cc(/C=C/C(=O)O[C@@H]2CC[C@]3(CO3)[C@@H]([C@@]3(C)O[C@@H]3CC=C(C)C)[C@@H]2OC)ccc1Oc1ccc(CO)cc1 [Example 10, O-(4-(4-hydroxymethylphenoxy)-3-methoxycinnamoyl)fumagillol]	42500	–	–	–	–	–	–	–	–	–	–	–	–	0.711	6.00 × 10^4	–	–
COc1ccc(/C=C/C(=O)O[C@@H]2CC[C@]3(CO3)[C@@H]([C@@]3(C)O[C@@H]3CC=C(C)C)[C@@H]2OC)cc1Oc1ccc(CO)cc1 [Example 11, O-(3-(4-hydroxymethylphenoxy)-4-methoxycinnamoyl)fumagillol]	75000	–	–	–	–	–	–	–	–	–	–	–	–	0.655	1.15 × 10^5	–	0.0036
CO[C@@H]1[C@H](OC(=O)/C=C/c2ccc(OCCCO)c(C#N)c2)CC[C@]2(CO2)[C@H]1[C@@]1(C)O[C@@H]1CC=C(C)C [Example 20, O-(3-cyano-4-(3-hydroxypropoxy)cinnamoyl)fumagillol]	20500	–	–	–	–	–	–	–	–	–	–	–	–	0.046	4.45 × 10^5	–	–
CO[C@@H]1[C@H](OC(=O)/C=C/c2ccc(OCCCCO)cc2)CC[C@]2(CO2)[C@H]1[C@@]1(C)O[C@@H]1CC=C(C)C [Example 21, O-(4-(4-hydroxybutoxy)cinnamoyl)fumagillol]	25800	1.1	98.9	1.0	99.0	0.1	150	97	70	–	–	hardly showed a change of purity	more excellent chemical stability than TNP-470, CKD-732 and CKD-731	0.029	8.90 × 10^5	–	–
CO[C@@H]1[C@H](OC(=O)/C=C/c2ccc(OCCCCO)c(C)c2)CC[C@]2(CO2)[C@H]1[C@@]1(C)O[C@@H]1CC=C(C)C [Example 22, O-(3-methyl-4-(4-hydroxybutoxy)cinnamoyl)fumagillol]	32500	–	–	–	–	–	–	–	–	–	–	–	–	0.048	6.76 × 10^5	–	–

Continued, in another order:

IC50 ([4]; Mus musculus, 72 h) [nM]	SMILES	1 month Other peaks (%) [1] [%]	1 month Parent peak (%) [1] [%]	Initial Other peaks (%) [1] [%]	Initial Parent peak (%) [1] [%]	change of purity (%) [1] [%]	The amount of solvent to dissolve 1 g of the compounds (ml), demineralized water [2] [mL]	The amount of solvent to dissolve 1 g of the compounds (ml), ethanol [2] [mL]	The amount of solvent to dissolve 1 g of the compounds (ml), methanol [2] [mL]	IC50 [3] [nM]	IC50 [4] [nM]	change of purity (in words) [1]	chemical stability compared to known compounds [1]	IC50 [3, 6] [nM]	Selectivity Index (L5178Y/CAPE) [3]	effect compared to CKD-731 against CPAE ([3]; relative to CKD-731)	IC50 [5] [nM]
20500	CO[C@@H]1[C@H](OC(=O)/C=C/c2ccc(OCCOCCO)cc2)CC[C@]2(CO2)[C@H]1[C@@]1(C)O[C@@H]1CC=C(C)C [Example 12, O-(4-(2-hydroxyethoxyethoxy)cinnamoyl)fumagillol]	0.6	99.4	0.5	99.5	0.1	126	51	35	–	–	hardly showed a change of purity	more excellent chemical stability than TNP-470, CKD-732 and CKD-731	0.019	1.08 × 10^6	–	–
34600	COc1cc(/C=C/C(=O)O[C@@H]2CC[C@]3(CO3)[C@@H]([C@@]3(C)O[C@@H]3CC=C(C)C)[C@@H]2OC)cc(OC)c1OCCOCCO [Example 13, O-(3,5-dimethoxy-4-(2-hydroxyethoxyethoxy)cinnamoyl)fumagillol]	–	–	–	–	–	–	–	–	–	–	–	–	0.17	2.03 × 10^5	–	–
50100	COc1cc(/C=C/C(=O)O[C@@H]2CC[C@]3(CO3)[C@@H]([C@@]3(C)O[C@@H]3CC=C(C)C)[C@@H]2OC)ccc1OCCOCCO [Example 14, O-(4-(2-hydroxyethoxyethoxy)-3-methoxycinnamoyl)fumagillol]	–	–	–	–	–	–	–	–	–	–	–	–	0.26	1.93 × 10^5	–	–
41900	COc1ccc(/C=C/C(=O)O[C@@H]2CC[C@]3(CO3)[C@@H]([C@@]3(C)O[C@@H]3CC=C(C)C)[C@@H]2OC)cc1OCCOCCO [Example 15, O-(3-(2-hydroxyethoxyethoxy)-4-methoxycinnamoyl)fumagillol]	–	–	–	–	–	–	–	–	–	–	–	–	0.4	1.05 × 10^5	–	–
24900	CO[C@@H]1[C@H](OC(=O)/C=C/c2ccc(OCCCO)cc2)CC[C@]2(CO2)[C@H]1[C@@]1(C)O[C@@H]1CC=C(C)C [Example 19, O-(4-(3-hydroxypropoxy)cinnamoyl)fumagillol]	–	–	–	–	–	–	–	–	–	–	–	–	0.017	1.46 × 10^6	–	–
10500	CO[C@@H]1[C@H](OC(=O)/C=C/c2ccc(OCCOCCOCCO)cc2)CC[C@]2(CO2)[C@H]1[C@@]1(C)O[C@@H]1CC=C(C)C [Example 27, O-(4-(2-hydroxyethoxyethoxyethoxy)cinnamoyl)fumagillol]	1.6	98.4	1.6	98.4	0	120	50	30	–	–	hardly showed a change of purity	more excellent chemical stability than TNP-470, CKD-732 and CKD-731	0.089	1.18 × 10^5	–	–
